Where “and” joins values, the source holds several entries; their conditions need not be identical. Equal entries are not always repeated. Inconclusive results and toxic doses are left out. *1 amine or outer side, *2 acyl side, *3 side chain or, on linkers, in order; H or OH if unused. Where a SMILES comes first, the peptide text is derived from it. Bridges are numbered along the chain shown (N, C = ends). Roman numbers before positions name the chains, in order. [ ]: non-standard residue; d: D form. Actinocin(9to1) = Cc1c2oc3c(C)ccc(C(=O)[*:1])c3nc-2c(C(=O)[*:2])c(N)c1=O; aThr = C[C@H](O)[C@H](N)C(=O)O; NMeV = CN[C@H](C(=O)O)C(C)C; Sar = CNCC(=O)O
System: BDF1 mice, P388/VCR leukemia ip, median survival T/C
Assay: NCI In Vivo Anticancer Drug Screen. Data for tumor model P388 Leukemia resistant to Vincristine; NSC 67574 (intraperitoneal) in B6D2F1 (BDF1) mice
Conditions: endpoint: median survival time, higher = longer survival
Method: The antitumor activity of compounds was measured in mice bearing transplantable tumors. Survival or tumor size were measured and the results are expressed as the measurement made in the treated group (T) divided by the measurement made in the vehicle treated control group (C). The tumor model used in this assay is P388 Leukemia resistant to Vincristine; NSC 67574 (intraperitoneal) in B6D2F1 (BDF1) mice

[1] = dose: 648.0 micrograms/kg/injection, schedule: Q04DX003 (ip), vehicle: saline
[2] = dose: 1000.0 micrograms/kg/injection, schedule: Q04DX003 (ip), vehicle: saline
[3] = dose: 30.0 mg/kg/injection, schedule: Q01DX010 (ip), vehicle: saline
[4] = dose: 37.5 mg/kg/injection, schedule: Q01DX010 (ip), vehicle: saline
[5] = dose: 75.0 mg/kg/injection, schedule: Q01DX010 (ip), vehicle: saline

`COc1cc2c[n+](C)c3c4cc5c(cc4ccc3c2cc1OC)OCO5` was tested, and the T/C (dose: 43.2 mg/kg/injection, schedule: Q04DX003 (ip), vehicle: Klucel (hydroxypropylcellulose) (HPC)) was 106 % of control, the T/C (dose: 72.0 mg/kg/injection, schedule: Q04DX003 (ip), vehicle: Klucel (hydroxypropylcellulose) (HPC)) was 108 % of control and the T/C (dose: 120.0 mg/kg/injection, schedule: Q04DX003 (ip), vehicle: Klucel (hydroxypropylcellulose) (HPC)) was 106 % of control. For the same compound, the T/C (dose: 200.0 mg/kg/injection, schedule: Q04DX003 (ip), vehicle: Klucel (hydroxypropylcellulose) (HPC)) was 109 % of control.

With `COc1cc2cc3c4cc(OC)c(OC)cc4cc[n+]3c(C)c2cc1OC` (tested in a mixture with another compound) the T/C (dose: 46.7 mg/kg/injection, schedule: Q04DX003 (ip), vehicle: alkali diluted with saline) was 106 % of control, the T/C (dose: 77.8 mg/kg/injection, schedule: Q04DX003 (ip), vehicle: alkali diluted with saline) was 110 % of control and the T/C (dose: 130.0 mg/kg/injection, schedule: Q04DX003 (ip), vehicle: alkali diluted with saline) was 115 % of control. For the same compound, the T/C (dose: 216.0 mg/kg/injection, schedule: Q04DX003 (ip), vehicle: alkali diluted with saline) was 124 % of control.

For `CO[C@@]12[C@H](COC(N)=O)C3=C(C(=O)C(C)=C(N)C3=O)N1C[C@@H]1N[C@@H]12`, the T/C (dose: 1.08 mg/kg/injection, schedule: Q04DX003 (ip), vehicle: saline) was 184 % of control, the T/C (dose: 1.8 mg/kg/injection, schedule: Q04DX003 (ip), vehicle: saline) was 221 % of control and the T/C (dose: 3.0 mg/kg/injection, schedule: Q04DX003 (ip), vehicle: saline) was 184 % of control. For the same compound, the T/C (dose: 5.0 mg/kg/injection, schedule: Q04DX003 (ip), vehicle: saline) was 124 % of control.

For `CCC1(O)CC2CN(CCc3c([nH]c4ccccc34)C(C(=O)OC)(c3cc4c(cc3OC)N(C)C3C(O)(C(N)=O)C(O)C5(CC)C=CCN6CCC43C65)C2)C1` (centres undefined) (tested in a mixture with another compound), the T/C (dose: 500.0 micrograms/kg/injection, schedule: Q04DX003 (ip), vehicle: saline) was 107 % of control, the T/C [1] was 106 % of control and the T/C [2] was 118 % of control. The T/C (dose: 1080.0 micrograms/kg/injection, schedule: Q04DX003 (ip), vehicle: saline) was 100 % of control, the T/C (dose: 1800.0 micrograms/kg/injection, schedule: Q04DX003 (ip), vehicle: saline) was 98 % of control and the T/C (dose: 4000.0 micrograms/kg/injection, schedule: Q04DX003 (ip), vehicle: saline) was 110 % of control.

`COC(=O)C[C@](O)(CCC(C)(C)O)C(=O)O[C@@H]1C(OC)=C[C@]23CCCN2CCc2cc4c(cc2[C@H]13)OCO4` was tested, and the T/C (dose: 0.25 mg/kg/injection, schedule: Q01DX009 (ip), vehicle: saline) was 92 % of control, the T/C (dose: 0.5 mg/kg/injection, schedule: Q01DX009 (ip), vehicle: saline) was 100 % of control and the T/C (dose: 1.0 mg/kg/injection, schedule: Q01DX009 (ip), vehicle: saline) was 88 % of control.

With `CC1CN=C(c2ccc(NC(=O)c3ccc(C(=O)Nc4ccc(C5=NCC(C)N5)cc4)cc3)cc2)N1` (centres undefined) the T/C (dose: 22.0 mg/kg/injection, schedule: Q01DX010 (ip), vehicle: saline) was 113 % of control and the T/C (dose: 33.0 mg/kg/injection, schedule: Q01DX010 (ip), vehicle: saline) was 109 % of control.

In the case of `O=C(Nc1cccc(C(=O)Nc2ccc(C3=NCCN3)cc2)c1)c1ccc(C2=NCCN2)cc1`, the T/C (dose: 54.0 mg/kg/injection, schedule: Q01DX010 (ip), vehicle: saline) is reported as 104 % of control.

With `CCCCn1cnc2c(=S)nc[nH]c21` the T/C (dose: 16.0 mg/kg/injection, schedule: Q01DX010 (ip), vehicle: saline) was 107 % of control, the T/C (dose: 32.0 mg/kg/injection, schedule: Q01DX010 (ip), vehicle: saline) was 96 % of control and the T/C (dose: 64.0 mg/kg/injection, schedule: Q01DX010 (ip), vehicle: saline) was 100 % of control.

For `CNc1nc(Nc2ccc(C3=NCCN3)cc2)nc(Nc2ccc(C3=NCCN3)cc2)n1`, the T/C (dose: 20.0 mg/kg/injection, schedule: Q01DX010 (ip), vehicle: saline) was 116 % of control, the T/C [3] was 108 % of control and the T/C (dose: 45.0 mg/kg/injection, schedule: Q01DX010 (ip), vehicle: saline) was 91 % of control.

For `Cc1c2oc3c(C)ccc(C(=O)N[C@@H]4C(=O)N[C@H](C(C)C)C(=O)N5CCC[C@H]5C(=O)N(C)CC(=O)N(C)[C@@H](C(C)C)C(=O)O[C@H]4C)c3nc-2c(C(=O)N[C@@H]2C(=O)N[C@H](C(C)C)C(=O)N3CCC[C@H]3C(=O)N(C)CC(=O)N(C)[C@@H](C(C)C)C(=O)O[C@H]2C)c(N)c1=O` (I: [aThr][dV]P[Sar][NMeV] / II: [aThr][dV]P[Sar][NMeV]; ester I:1-I:C, II:1-II:C; linker I:N-II:N via Actinocin(9to1)), the T/C (dose: 12.5 micrograms/kg/injection, schedule: Q01DX010 (ip), vehicle: other) was 108 % of control and 112 % of control, the T/C (dose: 25.0 micrograms/kg/injection, schedule: Q01DX010 (ip), vehicle: other) was 124 % of control and the T/C (dose: 108.0 micrograms/kg/injection, schedule: Q04DX003 (ip), vehicle: saline + alcohol) was 103 % of control. The T/C (dose: 180.0 micrograms/kg/injection, schedule: Q04DX003 (ip), vehicle: saline + alcohol) was 110 % of control, the T/C (dose: 300.0 micrograms/kg/injection, schedule: Q04DX003 (ip), vehicle: saline + alcohol) was 106 % of control and the T/C (dose: 500.0 micrograms/kg/injection, schedule: Q04DX003 (ip), vehicle: saline + alcohol) was 93 % of control.

In the case of `CN(C)c1nc(N(C)C)nc(N(C)C)n1`, the T/C (dose: 18.8 mg/kg/injection, schedule: Q01DX010 (ip), vehicle: saline) is reported as 100 % of control, the T/C [4] is reported as 100 % of control and the T/C [5] is reported as 100 % of control. The T/C (dose: 150.0 mg/kg/injection, schedule: Q01DX010 (ip), vehicle: saline) was 104 % of control.

`C[n+]1ccc(Nc2ccc(NC(=O)c3ccc(Nc4cc[n+](C)c5ccc(N)cc45)cc3)cc2)cc1` was tested, and the T/C (dose: 3.24 mg/kg/injection, schedule: Q04DX003 (ip), vehicle: water) was 116 % of control.

For `CS(=O)(=O)OCCCl`, the T/C [4] was 95 % of control and 100 % of control and the T/C [5] was 95 % of control and 100 % of control.

`O=C(Nc1ccc(C2=NCCN2)cc1)c1ccc(C(=O)Nc2ccc(C3=NCCN3)cc2)cc1` was tested, and the T/C (dose: 112.0 mg/kg/injection, schedule: Q01DX010 (ip), vehicle: saline) was 156 % of control, the T/C (dose: 167.0 mg/kg/injection, schedule: Q01DX010 (ip), vehicle: saline) was 173 % of control and the T/C (dose: 250.0 mg/kg/injection, schedule: Q01DX010 (ip), vehicle: saline) was 178 % of control.

In the case of `N[C@@H](Cc1ccc(N(CCCl)CCCl)cc1)C(=O)O`, the T/C (dose: 3.6 mg/kg/injection, schedule: Q01DX001 (ip), vehicle: saline) is reported as 184 % of control, the T/C (dose: 6.0 mg/kg/injection, schedule: Q01DX001 (ip), vehicle: saline) is reported as 181 % of control and the T/C (dose: 10.0 mg/kg/injection, schedule: Q01DX001 (ip), vehicle: saline) is reported as 191 % of control. The T/C (dose: 16.7 mg/kg/injection, schedule: Q01DX001 (ip), vehicle: saline) was 161 % of control.

For `N#CCSc1ncnc2nc[nH]c12`, the T/C (dose: 15.0 mg/kg/injection, schedule: Q01DX010 (ip), vehicle: saline) was 96 % of control and 100 % of control, the T/C [3] was 100 % of control and 103 % of control and the T/C (dose: 60.0 mg/kg/injection, schedule: Q01DX010 (ip), vehicle: saline) was 108 % of control and 123 % of control.

With `CCC1(O)CC2CN(CCc3c([nH]c4ccccc34)C(C(=O)OC)(c3cc4c(cc3OC)N(C)C3C(O)(C(=O)NCCSSCCNC(=O)C5(O)C(O)C6(CC)C=CCN7CCC8(c9cc(C%10(C(=O)OC)CC%11CN(CCc%12c%10[nH]c%10ccccc%12%10)CC(O)(CC)C%11)c(OC)cc9N(C)C58)C76)C(O)C5(CC)C=CCN6CCC43C65)C2)C1` (centres undefined) the T/C (dose: 250.0 micrograms/kg/injection, schedule: Q04DX003 (ip), vehicle: saline) was 117 % of control, the T/C [1] was 154 % of control and the T/C [2] was 161 % of control. The T/C (dose: 2000.0 micrograms/kg/injection, schedule: Q04DX003 (ip), vehicle: saline) was 164 % of control and the T/C (dose: 3000.0 micrograms/kg/injection, schedule: Q04DX003 (ip), vehicle: saline) was 90 % of control.

For `COc1cc([C@@H]2c3cc4c(cc3[C@@H](OC3OC5COC(C)OC5C(O)C3O)[C@H]3COC(=O)[C@H]23)OCO4)cc(OC)c1O` (some centres undefined), the T/C (dose: 7.48 mg/kg/injection, schedule: Q04DX003 (ip), vehicle: other) was 274 % of control, the T/C (dose: 12.5 mg/kg/injection, schedule: Q04DX003 (ip), vehicle: other) was 250 % of control and the T/C (dose: 20.8 mg/kg/injection, schedule: Q04DX003 (ip), vehicle: other) was 307 % of control. The T/C (dose: 34.6 mg/kg/injection, schedule: Q04DX003 (ip), vehicle: other) was 340 % of control.

`CCN(CC)CCNc1ccc(C)c2sc3ccccc3c(=O)c12` was tested, and the T/C (dose: 50.0 mg/kg/injection, schedule: Q01DX010 (ip), vehicle: saline) was 159 % of control and 172 % of control and the T/C (dose: 100.0 mg/kg/injection, schedule: Q01DX010 (ip), vehicle: saline) was 100 % of control.

— PubChem BioAssay AID336 (DTP/NCI, 2004)
